Data on three molecules can be found in patent US20240325379A1, “LOW-DOSE NALTREXOL AND USES THEREOF” (AETHER THERAPEUTICS INC., priority 2021, published 2024).

The term bioavailability denotes the share of a dose that reaches the circulation, judged against a reference dose that is usually intravenous. Read a high bioavailability as much systemic uptake.

Each structure is given as a SMILES string. “Also recorded” adds a separate entry of the source. Where two headings read alike, the source gives them in different places.

For data set [1], the system named is MOR. In words: Antagonist potency when administered before morphine in mice. Type of data set: in vivo. The conditions noted are these: for change of antagonist potency when given before morphine compared to the same time: ~2 h before morphine.
Data set [2] is described as follows: Oral bioavailability in rodents. The conditions noted are these: in vivo. How it is done:
In one embodiment, the dose of 6BN is from 0.001 to 0.25 mg. In another embodiment, the dose of 6BN is from 0.25 to 0.50 mg. In a further embodiment, the dose of 6BN is from 0.50 to 0.75 mg. In a still further embodiment, the dose of 6BN is from 0.75 to 1.0 mg. In a still another embodiment, the dose of 6BN is from 1.0 to 1.25 mg. In another embodiment, the dose of 6BN is from 1.25 to 1.5 mg. In a further embodiment, the dose of 6BN is from 1.5 to 1.75 mg. In a still further embodiment, the dose of 6BN is from 1.75 to 2.0 mg. In a still further embodiment, the dose of 6BN is from 2.0 to 3.0 mg. These projected dose ranges can be modified once clinical results with LD-6BN are available (for example oral bioavailability, estimated here to be ˜30% as observed in rodents.

The subject of the next data set is peripheral MOR. The note with it: methadone maintenance subjects, cited from earlier work.
Data set [3] has as its target T1, MOR (Homo sapiens, UniProt P35372). The note with it: 6β-naltrexol compared with naltrexone; cited from earlier work.
A short description of data set [4]: Blood and brain levels of 6BN after s.c. doses (FIG. 3). The data set is classed as in vivo, guinea pigs. As to the method:
Therefore, when serving as an addiction modulator, LD-6BN interacts effectively with both peripheral and central opioid receptors. Its effect on reversing opioid induced hyperalgesia might at least in part occur by acting on MOR in peripheral nociceptor neurons (15), but reversal of opioid dependence is likely driven by a central effect. The level of MOR bound 6BN after an s.c. dose of 0.02 mg/kg is estimated to occupy ˜10% of MOR sites, assuring a gradual reversal of MOR-μ* to MOR-μ and MOR-μ^x, insufficient to interfere with opioid analgesia, or cause withdrawal in dependent subjects.
(§1) High potency in facilitating gradual conversion of the dependent state (elevated MOR-μ*) back to the resting and/or reserve MOR states. Following LD-6B dosing, only a low fractional receptor occupancy is sufficient to reverse the dependent state in a gradual dynamic fashion, further accounting for high potency as an addiction modulator. • 5. When designed to act as an antagonist (doses above the LD-6BN range), potency is expected to increase over time when administered before an opioid agonist, presumably via high MOR-μ* occupancy and thereby more rapid reversal of MOR-μ* back to its resting or reserve states. […] Morphinan analogues of 6BN tend to bind to all opioid receptors with varying potency and efficacy (patents (47)). […] Potency of potential addiction modulators should therefore be tested for binding and efficacy at MOR, DOR (delta), and KOR, to detect differences between them and anticipate potential variation in clinical outcomes.

For data set [5], the system named is morphine induced slowing of bowel movements. The note with it: cited from earlier work.
In the next data set the test system is MOR-μ*. In words: Prevention/reversal of opioid dependence in animal models (FIG. 1, methadone-treated animals). Type of data set: in vivo, guinea pig. The note with it: low dose, no interference with opioid analgesia, no withdrawal.
For data set [6] the following is noted: humans; cited from earlier work.
Data set [7] in a line: Oral bioavailability in humans. The conditions noted are these: human, in vivo. From the text: (§2) Additional preferred formulations include transdermal patch application and intranasal application (with partial direct access to the brain, bypassing the blood-brain-barrier). When combined with opioid analgesics in a co-formulation, LD-6BN can be delivered in the same formulation type for any of the opioid analgesics currently used clinically, including sustained release oral preparations. No dosage adjustments are needed.

A further data set can be described thus: Water solubility. Type of data set: physicochemical.
From the text: as §2

Data set [8] has as its target kappa opioid receptors (KOR) (Homo sapiens, UniProt P41145). As to the kind of experiment: Inverse agonist activity at KOR pretreated in vitro with KOR agonists. Type of data set: biochemical.
From the text: as §1

Data set [9] deals with peripheral sensory neurons. The conditions noted are these: after washing out the drugs, 6BN tested at 10 μM; cited from earlier work.
The subject of data set [10] is MOR. The note with it: opioid detoxification/weaning with descending doses of buprenorphine; cited from earlier work.
Data set [11] has as its target T1, MOR. As to the kind of experiment: Neutral antagonism at MOR. From the text:
(§3) The invention embodies usage of any of these compounds or derivatives or metabolites thereof.

In data set [12] the target is T1, MOR. The note with it: in vivo.
From the text: as §3

Data set [13] has as its target T1, MOR. As to the kind of experiment: MOR affinity (in vitro binding).

T1 sequence (P35372 whole entry): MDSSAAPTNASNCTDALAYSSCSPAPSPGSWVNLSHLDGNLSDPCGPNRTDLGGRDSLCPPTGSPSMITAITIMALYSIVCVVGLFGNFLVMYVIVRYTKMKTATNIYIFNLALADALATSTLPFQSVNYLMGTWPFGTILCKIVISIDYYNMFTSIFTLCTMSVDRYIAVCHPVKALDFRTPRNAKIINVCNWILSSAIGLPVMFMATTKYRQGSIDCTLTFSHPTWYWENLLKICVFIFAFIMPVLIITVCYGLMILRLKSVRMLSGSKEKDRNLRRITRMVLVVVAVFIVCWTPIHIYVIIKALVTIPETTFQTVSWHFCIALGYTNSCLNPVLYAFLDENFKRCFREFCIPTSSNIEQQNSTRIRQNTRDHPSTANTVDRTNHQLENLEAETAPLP
Sequence of kappa opioid receptors (KOR) (P41145 whole entry): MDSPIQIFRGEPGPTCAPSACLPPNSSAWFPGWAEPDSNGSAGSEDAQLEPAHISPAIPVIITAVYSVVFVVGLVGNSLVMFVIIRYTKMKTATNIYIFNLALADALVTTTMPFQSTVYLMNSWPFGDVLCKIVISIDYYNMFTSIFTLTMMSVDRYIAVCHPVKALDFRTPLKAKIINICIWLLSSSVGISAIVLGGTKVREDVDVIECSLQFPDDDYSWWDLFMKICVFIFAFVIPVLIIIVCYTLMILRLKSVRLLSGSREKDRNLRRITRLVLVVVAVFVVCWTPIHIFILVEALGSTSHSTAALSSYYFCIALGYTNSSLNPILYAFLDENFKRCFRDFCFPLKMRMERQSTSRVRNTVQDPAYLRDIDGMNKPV
From the text for MOR-μ*: FIG. 1 provides data showing prevention of withdrawal behavior in methadone-treated animals.

Consider `Oc1ccc2c3c1O[C@H]1[C@H](O)CC[C@@]4(O)[C@@H](C2)N(CC2CC2)CC[C@]314` [6BN, 6β-naltrexol], for which the “pre-injection time of maximal delayed antagonist action” value in the data set on MOR [1] (high doses) is given as around 2 h. For the same molecule, the “change of antagonist potency when given before morphine compared to the same time” value in the data set with MOR [1] was “becomes more potent as an antagonist”. Further, the bioavailability in [2] and in [7] was around 30% each time. The central withdrawal symptoms result in the data set with peripheral MOR (0.5-1.0 mg i.v.) is on record as “no central withdrawal symptoms”. Further, the tolerated i.v. dose in the data set on peripheral MOR (i.v., peripheral effects and bowel movements experienced) is 0.5 to 1.0 mg. For the same molecule, the “affinity for MOR” value on MOR [3] is “nearly equally robust affinities”. The receptor occupancy at 0.02 mg/kg in data set [4] (Cavia porcellus, sc, after an s.c. dose of 0.02 mg/kg, estimated, read-out: occupancy of MOR sites by bound 6BN) is around 10%. The half-life in data set [4] (guinea pig, blood, sc, 1 mg/kg s.c., guinea pigs, read-out: initial blood t1/2 (converted)) was around 1 h. For the same molecule, in [4] (guinea pig, brain, sc, 24 h after a 1 mg/kg s.c. dose, guinea pigs, read-out: brain level), the concentration at 24 h is 0.5 ng/g. Further, the blood-brain-barrier penetration result in data set [4] (guinea pig, in vivo) is listed as “slowly”. Also, the suppression of analgesia result in data set [5] (20 mg, highest dose tested, administered 30 min before morphine) was “did not suppress analgesia”. In addition, the “ID50 against morphine induced slowing of bowel movements” value in data set [5] (i.v., against 10 mg morphine, opioid naïve subjects) is reported as around 3 mg. In addition, the figures for the “reversal/prevention of the opioid dependent state” value in the data set with MOR-μ* (listed as 6β-Naltrexol) and in the data set with MOR-μ* (listed as 6β-naltrexol) were “extreme potency” and “reverses the dependent state with high potency”, respectively. In addition, the half-life in blood in [6] is listed as around 12 h. Further, in the data set “Water solubility”, the water solubility entry is given as “highly water soluble”. Further, in data set [8], the “activity at KOR pretreated with KOR agonists” value is listed as “detectable inverse agonist activity”. Moreover, the “effect on MOR-μ* state” value in [9] was “reverses MOR-μ* back to the inactive state”.

Consider `O=C1CC[C@@]2(O)[C@H]3Cc4ccc(O)c5c4[C@@]2(CCN3CC2CC2)[C@H]1O5` [naltrexone, reference compound], for which the “initial total oral dose above which withdrawal symptoms occur” value in the data set with MOR [10] is at most 0.25 mg. Moreover, the “effect on MOR-μ* state” value in data set [9] was “lock MOR into the active MOR-μ* state while blocking MOR-μ* signaling”.

Turning to `CC(=O)N[C@@H]1CC[C@@]2(O)[C@H]3Cc4ccc(O)c5c4[C@@]2(CCN3CC2CC2)[C@@H]1O5` [6β-naltrexamide], the “change of antagonist potency when given before morphine compared to the same time” value in the data set with MOR [1] is on record as “gains potency; also recorded: increasing potency as a neutral antagonist”. In addition, at MOR [11], the “potency as a neutral antagonist” value is on record as “low potency as a neutral antagonist” and the type of antagonism entry is “neutral antagonism”. For the same molecule, the peripheral selectivity entry on MOR [12] was “peripheral selectivity”. Also, the peripheral selectivity entry at MOR [12] (listed as 6β-Natrexamide) is listed as “strong peripherally selective activity”. Also, at MOR [13], the “affinity to MOR in vitro” value was “high affinity”.
